The values below are quoted from earlier work in patent US10272130B1, “Oral anaerobic glutathione supplement in liposome suspension” (priority 2017, dated 2019).

For data set [1] the following is noted: in vivo.

For the molecule `CC(=O)N[C@@H](CS)C(=O)O` [NAC, N-acetylcysteine], in data set [1], the half-life entry is reported as “approximately 5.6 hours” and the “renally excreted by the body” value is 30%. In addition, the pregnancy risk category entry (in vivo) is “category B”. In addition, where the note is “orally administered or inhaled”, the “adverse effects associated with administration” value is “drowsiness, stomatitis, clamminess, rhinorrhea, and hemoptysis”.
